The results in this text go back to patent US8999956B2, “N-[(het)arylalkyl)] pyrazole(thio)carboxamides and their heterosubstituted analogues” (Bayer Intellectual Property GmbH, priority 2010, dated 2015).

One data set relates to Alternaria solani. In words: In vivo preventive test on Alternaria solani (tomato). To be noted: 500 ppm of active ingredient, evaluated 7 days after inoculation. The essentials:
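Preventive set-up: Alternaria solani spores, as aqueous suspension, applied to young plants one day after spraying. Spray contained active compound formulated with N,N-dimethylformamide and emulsifier, water-diluted to the desired application rate.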

Data set [1] can be described thus: log P by HPLC on reversed-phase column (EEC Directive 79/831 Annex V.A8). The class given is physicochemical. As for the experimental part:
In table 1, the log P values were determined in accordance with EEC Directive 79/831 Annex V.A8 by HPLC (High Performance Liquid Chromatography) on a reversed-phase column (C18), using the method described below: Temperature: 40° C.; […]

The subject of data set [2] is Blumeria graminis fsp. hordei. In words: In vivo preventive test on Blumeria graminis (barley). To be noted: 500 ppm of active ingredient, evaluated 7 days after inoculation. The essentials: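 Active compound taken up in N,N-dimethylacetamide with alkylaryl polyglycol ether emulsifier, then diluted in water to the desired concentration. Young barley plants sprayed at the stated application rate; once the coating had dried, plants were dusted with Blumeria graminis f. sp. hordei spores.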

Another data set relates to Cochliobolus miyabeanus. In words: In vivo protective test on Cochliobolus miyabeanus (rice). The note with it: Table M, 250 ppm of active ingredient, evaluated 4 days after inoculation.
Another data set concerns Pyricularia oryzae. The note with it: in vivo.
The subject of a further data set is Venturia inaequalis. In words: In vivo preventive test on Venturia inaequalis (apple scab). To be noted: 100 ppm of active ingredient, evaluated 10 days after inoculation. A digest of the protocol:
(§1)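 Young plants sprayed preventively at the stated application rate with compound dissolved in acetone/N,N-dimethylacetamide plus alkylaryl polyglycol ether emulsifier and diluted with water to the desired concentration.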

A further data set concerns Uromyces appendiculatus. In words: In vivo preventive test on Uromyces appendiculatus (beans). The note with it: 100 ppm of active ingredient, evaluated 10 days after inoculation. The essentials: as §1
Another data set has as its system Puccinia triticina. In words: In vivo preventive test on Puccinia triticina (wheat). To be noted: Table K, 500 ppm of active ingredient, evaluated 8 days after inoculation.
In another data set the test system is Pyrenophora teres. In words: In vivo preventive test on Pyrenophora teres (barley). The note with it: 500 ppm of active ingredient, evaluated 7-9 days after inoculation. The essentials:
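Preventive test: young barley plants received a water-diluted spray of compound formulated with DMF solvent plus alkylaryl polyglycol ether emulsifier, at the stated rate. Inoculation with an aqueous spore suspension of Pyrenophora teres followed one day after spraying.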

The next data set has as its system Sphaerotheca fuliginea. In words: In vivo preventive test on Sphaerotheca fuliginea (cucumber). To be noted: 500 ppm of active ingredient, evaluated 7 days after inoculation. A digest of the protocol: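 Young cucumber plants sprayed with compound (in DMF with alkylarylpolyglycolether emulsifier, diluted in water) at the stated application rate. Inoculated one day later with aqueous Sphaerotheca fuliginea spore suspension. Plants then held in greenhouse at approximately 23° C and approximately 70% relative humidity.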

Data set [3] relates to Fusarium nivale (var. majus). In words: In vivo preventive test on Fusarium nivale (wheat). The note with it: 500 ppm of active ingredient, evaluated 5 days after inoculation. A digest of the protocol: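 Young wheat plants sprayed preventively with compound formulated in N,N-dimethylacetamide plus alkylaryl polyglycol ether emulsifier, diluted in water to the stated application rate. After drying, plants were lightly injured by sandblast, then sprayed with a Fusarium nivale (var. majus) conidia suspension.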

In another data set the test system is Septoria tritici. In words: In vivo preventive test on Septoria tritici (wheat). To be noted: 500 ppm of active ingredient, evaluated 21 days after inoculation. The essentials: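 Compound formulated in N,N-dimethylacetamide with alkylaryl polyglycol ether emulsifier and diluted in water to the stated rate. Young wheat plants sprayed preventively; after the deposit dried, they were inoculated with a Septoria tritici spore suspension.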

A further data set has as its system Phakopsora pachyrhizi. In words: In vivo protective test on Phakopsora pachyrhizi (soybeans). To be noted: Table N, 250 ppm of active ingredient, evaluated 11 days after inoculation.
The next data set deals with Aspergillus parasiticus. In words: microbe, parasite or virus in culture. The class given is cell-based.
In data set [4] the test system is aflatoxines produced by Aspergillus parasiticus. In words: microbe, parasite or virus in culture. The data set is classed as cell-based.
The subject of a further data set is Leptosphaeria nodorum. In words: In vivo preventive test on Leptosphaeria nodorum (wheat). To be noted: 500 ppm of active ingredient, evaluated 7-9 days after inoculation. A digest of the protocol:
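Plants were inoculated with aqueous L. nodorum spores one day after a protective spray. The spray contained the compound at the stated rate, as a water-diluted concentrate in N,N-dimethylacetamide plus alkylaryl polyglycol ether emulsifier.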

A further data set relates to Fusarium graminearum. To be noted: in vivo.
Another data set deals with Botrytis cinerea. In words: In vivo preventive test on Botrytis cinerea (beans). To be noted: Table L, 500 ppm of active ingredient, lesion size 2 days after inoculation. The essentials: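 Young bean plants sprayed preventively with compound in acetone/dimethylacetamide/emulsifier diluted in water; after drying, each leaf inoculated with 2 agar pieces bearing Botrytis cinerea. Kept dark at 20° C, 100% humidity; lesion size scored at 2 days as % efficacy (0% = untreated, 100% = no disease).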

Several values for one entry are separate records, joined by “and”; a condition that tells them apart may be missing. Equal entries are not always repeated. Where two headings read alike, the source gives them in different places.

With `Cn1nc(C(F)F)c(C(=O)NC2CCCCC2CCC(C)(C)C)c1F` (single isomer, unassigned) [Example 357], the Efficacy is 100% in the data set on Alternaria solani; 100% in [2]; 93% in the data set on Cochliobolus miyabeanus; 97% with Pyricularia oryzae; 100% in the data set with Venturia inaequalis; 100% in the data set with Uromyces appendiculatus. For the same compound, the Efficacy in the data set with Puccinia triticina turned out to be 100%; with Pyrenophora teres it was 100%; in the data set on Sphaerotheca fuliginea, 100%; in [3], 100%; in the data set with Septoria tritici it was 100%; in the data set on Phakopsora pachyrhizi, 85%. This compound gave a logP in data set [1] of 4.50 isomer A.

Take `CC(C)CC(C)C1CCCCC1NC(=O)c1c(C(F)F)nn(C)c1F` (single isomer, unassigned) [Example 338]: the “% Inhibition of fungal growth at 50 μM” value with Aspergillus parasiticus was 100%. In addition, the Efficacy in the data set on Alternaria solani worked out at 100%; in [2], 100%; with Cochliobolus miyabeanus, 96%; with Pyricularia oryzae, 97%; with Venturia inaequalis it was 100%; in the data set on Puccinia triticina it was 100%. In addition, the Efficacy in the data set on Pyrenophora teres is listed as 100%; in the data set on Sphaerotheca fuliginea, 100%; in [3] it was 100%; in the data set on Septoria tritici it was 100%; with Phakopsora pachyrhizi it was 98%. In data set [1], this compound came in with a logP of 4.73 isomer B. Besides, the “% Inhibition of Aflatoxin at 50 μM” value in data set [4] came out at 100%.

In turn, `Cn1nc(C(F)F)c(C(=O)N(CC#Cc2ccccc2)C2CC2)c1F` [Example 271] returned a logP in [1] of 3.19. Besides, the Efficacy stood at 78% in [2]; 89% in the data set on Puccinia triticina; 95% with Pyrenophora teres; 98% in the data set with Sphaerotheca fuliginea; 90% in the data set on Leptosphaeria nodorum; 88% with Septoria tritici. This compound returned an Efficacy with Fusarium graminearum of 93%.

Regarding `Cn1nc(C(F)F)c(C(=O)N(CCOc2c(Cl)cccc2Cl)C2CC2)c1Cl` [Example 161], the logP in data set [1] worked out at 3.69. In addition, the Efficacy in data set [2] came to 100%; with Puccinia triticina, 90%; in the data set on Pyrenophora teres, 100%; with Leptosphaeria nodorum, 90%; in the data set on Septoria tritici, 80%; in the data set on Fusarium graminearum it was 86%.

On to `CC(C)CC(C)C1CCCCC1NC(=O)c1c(C(F)F)nn(C)c1F` (centres unmarked) [Example 339], for which the “% Inhibition of fungal growth at 50 μM” value in the data set on Aspergillus parasiticus was 100%. Further, the Efficacy in the data set with Alternaria solani came to 100%; in data set [2], 100%; in the data set with Cochliobolus miyabeanus, 92%; with Pyricularia oryzae it was 98%; in the data set with Venturia inaequalis, 100%; in the data set with Uromyces appendiculatus, 100%. For the same compound, the Efficacy in the data set on Puccinia triticina is 100%; in the data set on Pyrenophora teres, 94%; with Sphaerotheca fuliginea, 100%; with Leptosphaeria nodorum, 70% and 94%; in [3] it was 100%; in the data set on Septoria tritici it was 100%. The Efficacy in the data set with Phakopsora pachyrhizi was 98%. Moreover, the logP in [1] was 4.54. In [4], the “% Inhibition of Aflatoxin at 50 μM” value was 100%.

With `CC(C)CC(C)C1CCCC1NC(=O)c1c(C(F)F)nn(C)c1F` (mixture of isomers) [Example 315], the “% Inhibition of fungal growth at 50 μM” value in the data set with Aspergillus parasiticus (50 µM) was 100%. Moreover, the Efficacy worked out at 70% with Botrytis cinerea; 100% in the data set with Alternaria solani; 100% in [2]; 97% in the data set with Cochliobolus miyabeanus; 95% in the data set on Pyricularia oryzae; 100% in the data set with Venturia inaequalis. Moreover, the Efficacy in the data set on Uromyces appendiculatus came out at 100%; in the data set with Puccinia triticina, 95%; in the data set with Pyrenophora teres it was 100%; with Sphaerotheca fuliginea, 71%; in [3], 100%; in the data set on Septoria tritici, 100%. Moreover, in [4], the “% Inhibition of Aflatoxin at 50 μM” value is given as 100%.

In the case of `CC(COc1ccc(Cl)cc1Cl)N(C(=O)c1c(C(F)F)nn(C)c1F)C1CC1` (centres unmarked) [Example 187], in the data set on Aspergillus parasiticus, the “% Inhibition of fungal growth at 50 μM” value turned out to be 100%. This compound yielded a logP in data set [1] of 4.16. Besides, the Efficacy in data set [2] is on record as 100%; in the data set on Venturia inaequalis, 100%; in the data set on Uromyces appendiculatus, 95%; in the data set on Puccinia triticina it was 95%; with Pyrenophora teres it was 100%; in the data set with Sphaerotheca fuliginea, 100%. Besides, the Efficacy in the data set with Leptosphaeria nodorum is on record as 90%; in the data set with Septoria tritici it was 100%; with Fusarium graminearum, 100%. For the same compound, in data set [4], the “% Inhibition of Aflatoxin at 50 μM” value amounted to 100%.

`CC(CCc1ccc(Cl)c(Cl)c1)N(C(=O)c1c(C(F)F)nn(C)c1F)C1CC1` (racemic) [Example 129]: in the data set on Aspergillus parasiticus, the “% Inhibition of fungal growth at 50 μM” value worked out at 100%. The Efficacy in the data set on Alternaria solani is listed as 100%; in data set [2], 100%; in the data set with Venturia inaequalis, 100%; with Uromyces appendiculatus it was 99%; with Puccinia triticina it was 70%; in the data set with Pyrenophora teres it was 100%. Also, the Efficacy came to 100% in the data set on Sphaerotheca fuliginea, 100% with Leptosphaeria nodorum, 80% with Septoria tritici and 100% in the data set on Fusarium graminearum. Moreover, the logP in data set [1] came to 4.44. Also, in data set [4], the “% Inhibition of Aflatoxin at 50 μM” value stood at 100%.

For the compound `Cn1nc(C(F)F)c(C(=O)N(CCOc2c(Cl)cccc2Cl)C2CC2)c1F` [Example 162], the “% Inhibition of fungal growth at 50 μM” value in the data set on Aspergillus parasiticus (50 µM) worked out at 100%. The logP in data set [1] amounted to 3.55. In addition, the Efficacy in data set [2] is 100%; in the data set on Puccinia triticina, 80%; in the data set with Pyrenophora teres, 95%; in the data set with Sphaerotheca fuliginea it was 95%; in the data set on Leptosphaeria nodorum, 90%; in the data set with Septoria tritici, 90%. The same compound yielded an Efficacy in the data set on Fusarium graminearum of 100%. Also, the “% Inhibition of Aflatoxin at 50 μM” value in [4] (50 µM) was determined as 100%.

As to `CCCCC1CCCCC1NC(=O)c1c(C(F)F)nn(C)c1F` (single isomer, unassigned) [Example 329], in the data set with Aspergillus parasiticus (50 µM), the “% Inhibition of fungal growth at 50 μM” value is 97%. The Efficacy is reported as 99% with Botrytis cinerea; 100% in the data set on Alternaria solani; 100% in data set [2]; 98% with Cochliobolus miyabeanus; 98% in the data set on Pyricularia oryzae; 100% with Venturia inaequalis. Moreover, the Efficacy in the data set with Uromyces appendiculatus was found to be 100%; in the data set on Puccinia triticina, 100%; in the data set on Pyrenophora teres it was 100%; in the data set with Sphaerotheca fuliginea, 100%; in the data set on Leptosphaeria nodorum it was 90%; in data set [3] it was 100%. For the same compound, in the data set with Septoria tritici, the Efficacy was determined as 100%. In data set [1], this compound came in with a logP of 3.80 isomer A. Moreover, the “% Inhibition of Aflatoxin at 50 μM” value in [4] came to 100%.

With `CC(C)CC(C)C1CCCC1NC(=O)c1c(C(F)F)nn(C)c1Cl` (mixture of isomers) [Example 311], the “% Inhibition of fungal growth at 50 μM” value with Aspergillus parasiticus (50 µM) turned out to be 97%. For the same compound, the Efficacy in the data set on Alternaria solani was 100%; in [2] it was 100%; with Cochliobolus miyabeanus, 97%; in the data set on Pyricularia oryzae it was 96%; in the data set on Venturia inaequalis, 100%; with Uromyces appendiculatus, 100%. In addition, the Efficacy in the data set on Puccinia triticina came out at 100%; in the data set on Pyrenophora teres, 100%; with Sphaerotheca fuliginea it was 90%; in [3] it was 100%; in the data set on Septoria tritici, 93%; in the data set with Phakopsora pachyrhizi it was 98%. Besides, the “% Inhibition of Aflatoxin at 50 μM” value in data set [4] (50 µM) is reported as 100%.
